Data set [1] is described as follows: Half life in rat. The class given is ADME, organism-based. The settings on record: in vivo.
A short description of data set [2]: Plasma clearance in iv dosed rat. The class given is ADME, organism-based.
The nature of data set [3]: Volume of distribution at steady state in dog. It is filed as ADME, organism-based, Canis lupus familiaris. The conditions noted are these: in vivo, read-out: Vdss.
A short description of data set [4]: Metabolic stability in human liver microsomes. It is filed as ADME, Microsome. For orientation: Liver microsomes are vesicles of endoplasmic reticulum, rich in cytochrome P450 enzymes.
The nature of data set [5]: Metabolic stability in dog liver microsomes. It is filed as ADME, Canis lupus familiaris, Microsome.
Data set [6] addresses T1, C-C chemokine receptor type 1 (Homo sapiens, UniProt P32246).
T1 sequence (P32246 whole entry): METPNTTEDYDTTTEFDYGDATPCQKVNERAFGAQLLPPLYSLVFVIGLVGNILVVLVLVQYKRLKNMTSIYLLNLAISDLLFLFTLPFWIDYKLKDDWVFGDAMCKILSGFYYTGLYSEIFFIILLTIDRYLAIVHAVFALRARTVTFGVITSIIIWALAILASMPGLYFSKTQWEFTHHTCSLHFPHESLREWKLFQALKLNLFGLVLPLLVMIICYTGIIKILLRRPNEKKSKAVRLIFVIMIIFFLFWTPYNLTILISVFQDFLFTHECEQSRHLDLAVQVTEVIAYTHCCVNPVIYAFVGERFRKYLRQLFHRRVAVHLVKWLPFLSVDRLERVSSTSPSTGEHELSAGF
In words: Binding Affinity at CCL3.

The nature of data set [7]: Metabolic stability in rat liver microsomes. It is filed as ADME, Microsome.
The nature of data set [8]: Plasma clearance in iv dosed dog. The class given is ADME, organism-based, Canis lupus familiaris.
Data set [9] is described as follows: Activity at CCL3 by chemotaxis assay. The class given is functional.
The nature of data set [10]: Volume of distribution at steady state in rat. The class given is ADME, organism-based. The conditions noted are these: in vivo, read-out: Vdss.
The nature of data set [11]: Half life in dog. The conditions noted are these: in vivo. It is filed as ADME, organism-based, Canis lupus familiaris.
Data set [12] in a line: Metabolic stability in monkey liver microsomes. It is filed as ADME, Macaca fascicularis, Microsome. The settings on record: cynomolgus monkey.
Data set [13] in a line: Bioavailability in rat. The class given is ADME, organism-based. The settings on record: in vivo.
The nature of data set [14]: Bioavailability in dog. The class given is ADME, organism-based, Canis lupus familiaris. The conditions noted are these: in vivo.
A short description of data set [15]: Plasma clearance in monkey. It is filed as ADME, organism-based, Macaca fascicularis. The settings on record: cynomolgus monkey.
The nature of data set [16]: Half life in monkey. It is filed as ADME, organism-based, Macaca fascicularis. The conditions noted are these: cynomolgus monkey, in vivo.
A short description of data set [17]: Volume of distribution at steady state in monkey. The class given is ADME, organism-based, Macaca fascicularis. The settings on record: cynomolgus monkey, in vivo; read-out: Vdss.
Data set [18] can be described thus: Bioavailability in monkey. It is filed as ADME, organism-based, Macaca fascicularis. The settings on record: cynomolgus monkey, in vivo.

For orientation: half-life means the time needed for the level to fall by half in the phase considered. As a reminder, the clearance is the rate of elimination divided by the concentration. By IC50 is commonly meant the concentration needed to halve the response being measured. With `C[C@@H]1CN(Cc2ccc(F)cc2)[C@@H](C)CN1C(=O)COc1ccc(Cl)cc1CC(=O)O`, the half-life is 3.7 h in data set [1] and 11 h in [11]. For the same compound, the figures for the clearance in data set [2] and in [8] were 5.2 mL/min/kg and 0.4 mL/min/kg, respectively. Also, the Vd is 0.3 L/kg in [3] and 3.2 L/kg in data set [10]. The CLhep predicted in data set [4] is 4.7 mL/min/kg; in [5], 11 mL/min/kg; in [7] it was 25 mL/min/kg; in data set [12] it was 18 mL/min/kg. Also, the IC50 in data set [6] was 0.038 µM; in data set [9] it was 0.002 µM.

In general, bioavailability refers to dose-corrected exposure relative to a reference, in per cent. Consider `C[C@@H]1CN(Cc2ccc(F)cc2)[C@@H](C)CN1C(=O)COc1ccc(Cl)cc1C(=O)CCC(=O)O`, for which the half-life in [1] is 2.3 h; in data set [11] it was 5.8 h. The values for the clearance in data set [2] and in data set [8] were 42 mL/min/kg and 9.7 mL/min/kg, respectively. In addition, the Vd in data set [3] is 4.2 L/kg; in data set [10], 4 L/kg. The CLhep predicted in data set [4] is 4.7 mL/min/kg; in [5] it was 11 mL/min/kg; in [7], 31 mL/min/kg; in [12], 18 mL/min/kg. For the same compound, the results for the bioavailability in [13] and in [14] were 9% and 100%, respectively. For the same compound, the figures for the IC50 in [6] and in data set [9] were 0.013 µM and < 0.0005 µM, respectively.

For the compound `C[C@@H]1CN(Cc2ccc(F)cc2)CCN1C(=O)COc1ccc(Cl)cc1`, the CLhep predicted in data set [4] is 14 mL/min/kg; in [5], 27 mL/min/kg; in data set [7] it was 63 mL/min/kg; in [12], 40 mL/min/kg. For the same compound, the IC50 was 0.86 µM in data set [6] and 0.086 µM in data set [9].

With `C[C@@H]1CN(Cc2ccc(F)cc2)[C@@H](C)CN1C(=O)COc1ccc(Cl)cc1NC(=O)NCCN`, the CLhep predicted was 4.9 mL/min/kg in data set [4], 11 mL/min/kg in data set [5], 24 mL/min/kg in data set [7] and 18 mL/min/kg in data set [12]. Besides, the IC50 in data set [6] stood at 0.008 µM; in data set [9] it was 0.001 µM.

For `C[C@@H]1CN(Cc2ccc(F)cc2)[C@@H](C)CN1C(=O)COc1ccc(Cl)cc1C(=O)O`, the clearance in data set [15] came to 3.4 mL/min/kg; in data set [2], 2.4 mL/min/kg; in [8] it was 0.2 mL/min/kg. Also, the half-life in data set [16] is 5.9 h; in data set [1], 14 h; in data set [11] it was 11 h. Further, the Vd in data set [3] worked out at 0.2 L/kg; in data set [17], 0.9 L/kg; in [10], 2.4 L/kg. Further, the CLhep predicted in data set [4] was 4.7 mL/min/kg; in data set [5], 11 mL/min/kg; in data set [7] it was 20 mL/min/kg; in [12] it was 31 mL/min/kg. Besides, the IC50 in [6] came to 0.059 µM; in [9] it was 0.068 µM.

In turn, `C[C@@H]1CN(Cc2ccc(F)cc2)[C@@H](C)CN1C(=O)COc1ccc(Cl)cc1C(=O)NCCN` had a half-life in data set [1] of 1 h. Also, the clearance in data set [2] was 184 mL/min/kg. For the same compound, the CLhep predicted in [4] is 5.9 mL/min/kg; in data set [5] it was 25 mL/min/kg; in data set [7], 22 mL/min/kg; in [12] it was 36 mL/min/kg. Also, the IC50 in data set [6] worked out at 0.03 µM; in [9] it was 0.003 µM. Moreover, the Vd in [10] was determined as 7.7 L/kg.

On to `C[C@@H]1CN(Cc2ccc(F)cc2)[C@@H](C)CN1C(=O)COc1ccc(Cl)cc1CS(=O)(=O)O`, for which the figures for the clearance in [15], in [2] and in data set [8] were 51 mL/min/kg, 17 mL/min/kg and 0.2 mL/min/kg, respectively. Also, the half-life was 1.1 h in data set [16], 4.6 h in [1] and 21 h in [11]. The Vd in data set [3] was 0.4 L/kg; in [17] it was 2.1 L/kg; in data set [10], 2.6 L/kg. Besides, the bioavailability was 19% in data set [18], 40% in data set [13] and 100% in data set [14]. The CLhep predicted is 4.7 mL/min/kg in data set [4], 11 mL/min/kg in data set [5], 21 mL/min/kg in [7] and 18 mL/min/kg in [12]. The IC50 in data set [6] came out at 0.023 µM; in data set [9], 0.003 µM.

Take `C[C@@H]1CN(Cc2ccc(F)cc2)CCN1C(=O)COc1ccc(Cl)cc1NC(N)=O` [BX 471 FREE BASE]: the clearance in data set [15] is 8.9 mL/min/kg; in data set [2], 33 mL/min/kg; in data set [8], 1.7 mL/min/kg. Also, the half-life in [16] is 0.8 h; in data set [1], 0.7 h; in [11], 4 h. The Vd in data set [3] came to 0.6 L/kg; in [17] it was 0.6 L/kg; in data set [10], 1.7 L/kg. The CLhep predicted was 16 mL/min/kg in [4], 28 mL/min/kg in data set [5], 62 mL/min/kg in data set [7] and 42 mL/min/kg in [12]. Besides, the bioavailability in [13] was found to be 2%. Further, in [9], the IC50 is 0.004 µM.

The values above are taken from ChEMBL document CHEMBL1147927, “Piperazinyl CCR1 antagonists--optimization of human liver microsome stability” (Bioorg Med Chem Lett, 2007).
